According to paper PMC7025792 (ACS infectious diseases, 2019):
Converted amounts (≈) assume the structure as drawn. “And” between values parts separate entries of the source, which are not always exact repeats. Equal entries are not always repeated.

Key:
DfrB = DfrB (Staphylococcus aureus, UniProt P0A017); assay type: biochemical; conditions: read-out: KM, DHF, NADPH saturation 100 μM
DfrA = DfrA (Staphylococcus aureus, UniProt P13955); assay: biochemical; assay type: biochemical
DfrG [1] = target: T1, DfrG (Staphylococcus aureus, UniProt Q4H3Y3); conditions: read-out: KM, DHF, NADPH saturation 100 μM
DfrK [2] = target: T2, DfrK (Staphylococcus aureus, UniProt C7C2U7); conditions: read-out: KM, DHF, NADPH saturation 100 μM
[3] = target: human DHFR isoform (HuDHFR) (Homo sapiens, UniProt P00374); conditions: read-out: KM, DHF, NADPH saturation 100 μM
Chain of human DHFR isoform (HuDHFR) (P00374 whole entry, canonical isoform): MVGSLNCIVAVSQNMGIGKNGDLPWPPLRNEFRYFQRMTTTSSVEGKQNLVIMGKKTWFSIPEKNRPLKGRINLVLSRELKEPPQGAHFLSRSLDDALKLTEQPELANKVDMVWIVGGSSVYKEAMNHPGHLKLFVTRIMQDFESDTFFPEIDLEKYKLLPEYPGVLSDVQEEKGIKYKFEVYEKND

UCH115 (dfrA) = assay: MIC, broth dilution, dfrA clinical isolate; assay type: cell-based; conditions: Staphylococcus aureus, 18 h, read-out: Minimum Inhibitory Concentrations
UCH121 (dfrG) = assay: MIC, broth dilution, dfrG clinical isolate; assay type: cell-based, Staphylococcus aureus; conditions: for MIC: Staphylococcus aureus, 18 h, read-out: Minimum Inhibitory Concentrations; for Minimum Inhibitory Concentrations: UCH121 (dfrG), 18 hour, 37°C, isosensitest broth
HH1184 (dfrK) = assay: MIC, broth dilution, dfrK clinical isolate; assay type: cell-based, Staphylococcus aureus; conditions: for Minimum Inhibitory Concentrations: HH1184 (dfrK), 18 hour, 37°C, isosensitest broth; for MIC: Staphylococcus aureus, 18 h, read-out: Minimum Inhibitory Concentrations
DfrG [4] = target: T1, DfrG; assay: biochemical
MCF10A = assay: Mammalian cytotoxicity, Alamar Blue; assay type: cell-based; conditions: Homo sapiens, MCF-10A, 4 h, read-out: Mammalian Toxicity IC50
HepG2 = assay: Mammalian cytotoxicity, Alamar Blue; assay type: cell-based; conditions: Homo sapiens, HepG2, 4 h, read-out: Mammalian Toxicity IC50
DfrK [5] = target: T2, DfrK; assay: biochemical; conditions: Enzymatic inhibition, Table 4, average of three experiments ±SD

Chain of DfrA (P13955 whole entry): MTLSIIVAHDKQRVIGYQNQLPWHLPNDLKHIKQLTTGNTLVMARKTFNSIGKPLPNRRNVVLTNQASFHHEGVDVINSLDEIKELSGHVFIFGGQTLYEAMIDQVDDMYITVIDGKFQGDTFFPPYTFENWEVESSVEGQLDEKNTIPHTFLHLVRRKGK
Chain of DfrB (P0A017 whole entry): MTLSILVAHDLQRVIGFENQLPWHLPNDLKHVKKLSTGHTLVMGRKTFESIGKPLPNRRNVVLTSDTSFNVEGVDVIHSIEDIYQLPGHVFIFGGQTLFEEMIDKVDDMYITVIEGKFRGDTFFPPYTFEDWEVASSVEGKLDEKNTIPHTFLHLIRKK

Compound	Km (DfrB)	Km (DfrA; read-out: KM, DHF, DfrA, NADPH saturation 100 μM)	Km (DfrG [1])	Km (DfrK [2])	Km [3]	MIC (UCH115 (dfrA))	MIC (UCH121 (dfrG))	Minimum Inhibitory Concentrations (UCH121 (dfrG))	Minimum Inhibitory Concentrations (HH1184 (dfrK))	MIC (HH1184 (dfrK))	Ki (DfrA)	Ki (DfrG [4])	IC50 (MCF10A)	IC50 (HepG2)	Ki (DfrK [5])
Nc1nc(=O)c2c([nH]1)NCC(CNc1ccc(C(=O)N[C@@H](CCC(=O)O)C(=O)O)cc1)=N2 [DHF, dihydrofolate]	13.3 µM and 13.4 µM	5.76 µM	8.87 µM and 8.9 µM	11 µM	10.5 µM	–	–	–	–	–	–	–	–	–	–
COc1cc(Cc2cnc(N)nc2N)c2c(c1OC)OC(C1CC1)C=C2 (stereo not shown) [Iclaprim, iclaprim]	–	–	–	–	–	64 µg/mL (≈ 181 µM)	> 250 µg/mL	>250 µg/mL	>250 µg/mL	> 250 µg/mL	90 ± 3 nM	1350 ± 10 nM	–	–	–
CN(Cc1cnc2nc(N)nc(N)c2n1)c1ccc(C(=O)N[C@@H](CCC(=O)O)C(=O)O)cc1 [Methotrexate]	–	–	–	–	–	> 250 µg/mL	> 250 µg/mL	–	–	> 250 µg/mL	0.38 ± 0.04 nM	1.8 ± 0.1 nM	> 200 µg/mL	> 200 µg/mL	2.5 ± 0.1 nM
COc1cc(Cc2cnc(N)nc2N)cc(OC)c1OC [Trimethoprim, trimethoprim]	–	–	–	–	–	250 µg/mL (≈ 861 µM)	> 1000 µg/mL	>1000 µg/mL	>1000 µg/mL	> 1000 µg/mL	–	–	–	–	–
